Assay results taken from publication PMC8156256, “Use of Half-Generation PAMAM Dendrimers (G0.5–G3.5) with Carboxylate End-Groups to Improve the DACHPtCl2 and 5-FU Efficacy as Anticancer Drugs” (Molecules, 2021).
Read-outs that look alike come from different tables or passages of the source.

Columns and labels:
[1] = system: calf thymus DNA (CT-DNA); assay: DNA binding study by UV-vis spectroscopy (Benesi-Hildebrand); conditions: increasing CT-DNA 0-50 µM, 5 mM Tris-HCl/50 mM NaCl pH 7.4, 5 min incubation
Procedure: The stock solutions of DNA were directly prepared in this buffer. DNA purity was assessed by UV–vis spectroscopy using the absorbance values ratio at 260 nm and 280 nm (it should be between 1.8–1.9 to make sure it is sufficiently protein-free). […] The compounds and the CT-DNA were incubated for 5 min at room temperature. The absorbance was measured in a PerkinElmer UV–vis spectrometer Lambda equipment, using the buffer as blank. […] The intrinsic binding constant, Kb, of the compounds with DNA, was determined using the Benesi–Hildebrand equation [36]: A0/(A−A0) = εG/(εH-G − εG) + εG/(εH-G − εG) × 1/(Kb[DNA]), where Kb is the binding constant, [DNA] is the DNA concentration, A0 and A are the absorbance values of the free compound and compound–DNA complex, and εG and εH-G are their absorption coefficients, respectively. Binding constant values were then obtained from the ratio of the y-intercept to the slope in the plots A0/A−A0 vs. 1/[DNA]. Additionally, the Gibbs free energy (ΔG) associated with the process of DNA binding was calculated using the usual equation: ∆G = −RTlnKb, where T is the temperature in Kelvin and R the gas constant.

[2] = system: A2780 ovarian cancer cells; assay: MTT cytotoxicity assay, A2780; format: cell-based, human; conditions: for IC50: MTT, 72 h, read-out: A2780 IC50 ± SD
Procedure: (§1) Several human cell lines were used in the cytotoxicity evaluation studies, namely: ovarian cancer cells (A2780), cisplatin-resistant ovarian cancer cells (A2780CisR), breast cancer cells (MCF-7), colorectal adenocarcinoma cells (CACO-2), and fibroblast cells (BJ, a non-cancer cell line). All cell lines were cultured in 96-well plates at a seeding density of 1 × 10^4 cells per well with a specific culture medium supplemented with 10% (v/v) fetal bovine serum (FBS) and 1% (v/v) antibiotic–antimycotic solution (AA, 100× solution) at 37 °C, in a humidified atmosphere and 5% CO2. Specific cell culture media were as follows: the A2780 and A2780CisR cell lines were cultured in RPMI 1640 medium supplemented with L-glutamine (2 mM), and 1% (w/v) of cisplatin (100 mM) in the case of A2780CisR cells (cisplatin was only used in the subculturing process before the cytotoxicity assays); the MCF-7 cell line was cultured in RPMI 1640 medium supplemented with 1 mM sodium pyruvate, 1% (v/v) nonessential amino acids (NEAA, 100× solution), and human insulin 3.3 µg/mL; the CACO-2 cell line was cultured in MEM medium supplemented with 1% (v/v) NEAA; the BJ cell line was cultured in D-MEM medium. After 24 h in culture, cells were incubated with the compounds under testing prepared in nuclease-free water. In all cases, 100 µL of the compound solution was used for a total volume of 200 µL in the well. The metallodendrimers cytotoxicity was evaluated using all the mentioned cell lines at the concentrations of 0.01, 0.03, 0.1, 0.5, 1, 2.5, 5, and 10 µM. Pristine anionic PAMAM dendrimers (G0.5–3.5) were used as controls. The cytotoxicity of the metallodendrimer G2.5COO(DACHPt)16/5-FU was evaluated using A2780CisR, and CACO-2 cells at the concentrations of 0.01, 0.2, 1, 5, 10 and 20 µg/mL, and G2.5(COONa)32/5-FU and free 5-FU were used as controls. After 72 h of incubation with the compounds under testing, the culture medium was replaced by new culture medium containing 10% (v/v) of a MTT (3-(4,5-dimethylthiazol-2-yl)-2,5-diphenyltetrazolium bromide) solution (0.5 mg/mL). After 3 h of incubation, the culture medium was aspirated, and the formed formazan crystals were dissolved in 100 µL of DMSO. Absorbance intensity was measured at 550 nm in a microplate reader (Victor3 1420, Perkin Elmer, Waltham, MA, USA). Three independent experiments with three replicas each were carried out. The concentration that inhibited 50% of the cellular metabolic activity (IC50) was determined by linear interpolation between the two experimental points closer to the point correspondent to 50% of the control’s cellular metabolic activity. Results are presented as the mean ± standard deviation (SD).

[3] = system: A2780CisR cisplatin-resistant ovarian cancer cells; assay: MTT cytotoxicity assay, A2780cisR; format: cell-based, human; conditions: for Resistance Factor (Rf): IC50 A2780CisR / IC50 A2780; for IC50: MTT, 72 h, for 5-FU loaded systems MW includes the estimated number of 5-FU molecules, read-out: A2780cisR IC50 ± SD
Procedure: as §1

[4] = system: MCF-7 breast cancer cells; assay: MTT cytotoxicity assay, MCF-7; format: cell-based, human; conditions: for IC50: MTT, 72 h, read-out: MCF-7 IC50 ± SD
Procedure: as §1

[5] = system: BJ fibroblast cells (non-cancer cell line); assay: MTT cytotoxicity assay, BJ; format: cell-based, human; conditions: 72 h, read-out: BJ IC50 ± SD
Procedure: Several human cell lines were used in the cytotoxicity evaluation studies, namely: ovarian cancer cells (A2780), cisplatin-resistant ovarian cancer cells (A2780CisR), breast cancer cells (MCF-7), colorectal adenocarcinoma cells (CACO-2), and fibroblast cells (BJ, a non-cancer cell line). All cell lines were cultured in 96-well plates at a seeding density of 1 × 10^4 cells per well with a specific culture medium supplemented with 10% (v/v) fetal bovine serum (FBS) and 1% (v/v) antibiotic–antimycotic solution (AA, 100× solution) at 37 °C, in a humidified atmosphere and 5% CO2. […] The metallodendrimers cytotoxicity was evaluated using all the mentioned cell lines at the concentrations of 0.01, 0.03, 0.1, 0.5, 1, 2.5, 5, and 10 µM. […] The cytotoxicity of the metallodendrimer G2.5COO(DACHPt)16/5-FU was evaluated using A2780CisR, and CACO-2 cells at the concentrations of 0.01, 0.2, 1, 5, 10 and 20 µg/mL, and G2.5(COONa)32/5-FU and free 5-FU were used as controls. […] Absorbance intensity was measured at 550 nm in a microplate reader (Victor3 1420, Perkin Elmer, Waltham, MA, USA). […]

[6] = system: red blood cells; assay: Hemotoxicity (hemolysis) assay, cyanmethemoglobin method; format: cell-based; conditions: human blood; for hemolysis percentage (release of hemoglobin): 3 h, 37 °C, 5 µM
Procedure: Human blood from healthy donors was collected in tubes containing EDTA and used to evaluate the compounds’ hemotoxicity under testing towards red blood cells by the cyanmethemoglobin method. The total hemoglobin concentration in the original blood was determined starting from a 250-fold dilution of blood in cyanmethemoglobin reagent (the C reagent was prepared in an amber bottle with 50 mg of potassium ferricyanide, 12.5 mg of potassium cyanide, and 35 mg of potassium dihydrogen phosphate in 250 mL of distilled water with 250 µL of Triton-X; its pH was adjusted to 7.4). A standard curve for hemoglobin was then prepared with hemoglobin from bovine blood (Figure S34). Briefly, a stock solution of the protein (1.5 mg/mL) was first prepared in C reagent, from which serial dilutions were performed to obtain standards of known concentration (in the range 0.20 to 1.4 mg/mL). Absorbance was then measured at 550 nm, and the C reagent was used as blank. The total hemoglobin concentration was determined using this standard curve, taking into consideration the initial dilution. For hemotoxicity evaluation of the compounds under testing, a 10% (v/v) blood solution was prepared in PBS (Mg^2+/Ca^2+ free). Then, 10 µL of this blood solution was added to several microtubes containing 70 µL of compound solution (at the concentrations 0.1, 1, and 5 µM); for controls, microtubes with 70 µL of distilled water (positive control) and 70 µL of PBS (negative control) were also prepared. After, the microtubes were incubated at 37 °C for 3 h and subsequently centrifuged at 3800 rpm for 10 min. In the end, 40 µL of each supernatant were transferred to 96-well plates, 160 µL of C reagent was added, and absorbance was measured at 550 nm. The concentration of hemoglobin in the supernatants was then determined using the same standard curve and considering the performed dilutions. The results are presented as a percentage of hemolysis (mean of three independent assays) ± standard deviation (SD). A Perkin Elmer VICTOR^3™ Multilabel Reader spectrophotometer was used in this assay.

[7] = system: CACO-2 colorectal adenocarcinoma cells; assay: MTT cytotoxicity assay, CACO-2; format: cell-based, human; conditions: for 5-FU loaded systems MW includes the estimated number of 5-FU molecules, read-out: CACO-2 IC50 ± SD
Procedure: All cell lines were cultured in 96-well plates at a seeding density of 1 × 10^4 cells per well with a specific culture medium supplemented with 10% (v/v) fetal bovine serum (FBS) and 1% (v/v) antibiotic–antimycotic solution (AA, 100× solution) at 37 °C, in a humidified atmosphere and 5% CO2. […] After 24 h in culture, cells were incubated with the compounds under testing prepared in nuclease-free water. In all cases, 100 µL of the compound solution was used for a total volume of 200 µL in the well. The metallodendrimers cytotoxicity was evaluated using all the mentioned cell lines at the concentrations of 0.01, 0.03, 0.1, 0.5, 1, 2.5, 5, and 10 µM. Pristine anionic PAMAM dendrimers (G0.5–3.5) were used as controls. The cytotoxicity of the metallodendrimer G2.5COO(DACHPt)16/5-FU was evaluated using A2780CisR, and CACO-2 cells at the concentrations of 0.01, 0.2, 1, 5, 10 and 20 µg/mL, and G2.5(COONa)32/5-FU and free 5-FU were used as controls. After 72 h of incubation with the compounds under testing, the culture medium was replaced by new culture medium containing 10% (v/v) of a MTT (3-(4,5-dimethylthiazol-2-yl)-2,5-diphenyltetrazolium bromide) solution (0.5 mg/mL). After 3 h of incubation, the culture medium was aspirated, and the formed formazan crystals were dissolved in 100 µL of DMSO. […] Three independent experiments with three replicas each were carried out.

[8] = IC50 oxaliplatin / IC50 compound

O=C1[O][Pt]2([NH][C@@H]3CCCC[C@H]3[NH]2)[O]C1=O [Oxaliplatin, [(1R,2R)-cyclohexane-1,2-diamine] (ethanedioato-O,O′)platinum(II)]
Change in Absorbance [1]: Hyperchromism
IC50 [2]: 0.48 ± 0.03 µM
Resistance Factor (Rf) [3]: 7.2
IC50 [3]: 3.5 ± 0.5 µM
IC50 [4]: > 10 µM
IC50 [5]: > 10 µM
hemolysis percentage (release of hemoglobin) [6]: around 12%

O=c1[nH]cc(F)c(=O)[nH]1 [5-FU, 5-fluoro-1H-pyrimidine-2,4-dione]
IC50 ([3]; Homo sapiens, A2780cisR): > 154 µM
IC50 ([7]; Homo sapiens, Caco-2, 72 h): > 154 µM
hemolysis at 3 h ([6]; concentrations 0.1 and 1 µg/mL): ~5%

trans-(R,R)-1,2-diaminocyclohexanedichloroplatinum(II) [DACHPtCl2]
Change in Absorbance [1]: Hyperchromism
Selectivity Index (SI) A2780 ([2]; IC50 BJ / IC50 A2780): >32
Relative Potency (RP) A2780 [2, 8]: 1.7
IC50 [2]: 0.3 ± 0.2 µM
Resistance Factor (Rf) [3]: 6.2
Selectivity Index (SI) A2780CisR ([3]; IC50 BJ / IC50 A2780CisR): >5.2
Relative Potency (RP) A2780CisR [3, 8]: 2
IC50 [3]: 1.7 ± 0.4 µM
Selectivity Index (SI) MCF-7 ([4]; IC50 BJ / IC50 MCF-7): >1.7
Relative Potency (RP) MCF-7 [4, 8]: >1.9
IC50 [4]: 5 ± 2 µM
IC50 ([7]; 72 h): > 10 µM
IC50 [5]: > 9 µM
hemolysis percentage (release of hemoglobin) [6]: 7–10%
